In patent publication US9334263B2, “Compositions useful for treating disorders related to kit” (BLUEPRINT MEDICINES CORPORATION, priority 2013, dated 2016):
pIC50: −log10 of the molar value.

The compounds below were run against T1, D816V Kit (Homo sapiens, UniProt P10721, D816V) (assay: Kit D816V assay at Km (Caliper electrophoretic mobility shift)). Details: 15 uM ATP, 25 C, 90 minutes.
T1 construct: purchased Carna Bioscience 08-156
Format: biochemical
Summary of the method: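 Read-out is the ratio of phosphorylated to unphosphorylated fluorescent peptide, resolved by mobility shift on a Caliper EZ Reader 2.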

T1 sequence (P10721 26-976 D816V): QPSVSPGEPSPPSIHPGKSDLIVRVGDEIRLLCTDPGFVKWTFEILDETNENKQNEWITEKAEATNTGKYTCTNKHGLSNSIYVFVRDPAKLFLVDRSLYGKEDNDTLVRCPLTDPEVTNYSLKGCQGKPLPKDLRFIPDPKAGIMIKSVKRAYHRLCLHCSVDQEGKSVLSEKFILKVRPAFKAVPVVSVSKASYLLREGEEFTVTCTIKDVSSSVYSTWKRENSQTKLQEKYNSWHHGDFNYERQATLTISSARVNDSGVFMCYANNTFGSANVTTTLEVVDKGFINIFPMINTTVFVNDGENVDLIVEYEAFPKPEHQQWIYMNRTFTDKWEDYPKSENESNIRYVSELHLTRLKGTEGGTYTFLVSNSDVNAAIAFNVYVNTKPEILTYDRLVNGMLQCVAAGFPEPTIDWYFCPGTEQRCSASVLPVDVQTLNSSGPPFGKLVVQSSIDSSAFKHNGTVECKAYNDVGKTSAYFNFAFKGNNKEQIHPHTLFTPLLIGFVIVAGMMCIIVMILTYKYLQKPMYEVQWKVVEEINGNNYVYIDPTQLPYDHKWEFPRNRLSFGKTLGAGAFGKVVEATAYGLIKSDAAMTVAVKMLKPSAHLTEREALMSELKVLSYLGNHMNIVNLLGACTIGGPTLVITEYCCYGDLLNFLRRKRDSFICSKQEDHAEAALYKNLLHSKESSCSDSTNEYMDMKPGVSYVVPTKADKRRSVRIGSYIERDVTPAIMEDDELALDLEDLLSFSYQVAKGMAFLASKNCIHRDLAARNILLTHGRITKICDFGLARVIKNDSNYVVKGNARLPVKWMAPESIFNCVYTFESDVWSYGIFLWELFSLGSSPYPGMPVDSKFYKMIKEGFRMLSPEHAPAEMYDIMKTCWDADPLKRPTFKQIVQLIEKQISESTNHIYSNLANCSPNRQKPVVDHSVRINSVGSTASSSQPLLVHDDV

Row | SMILES | pIC50
1 | c1ccc(Cc2cnc(N3CCN(c4ncnc(Nc5cnn(CC6CCNC6)c5)n4)CC3)nc2)cc1 (stereo not drawn) [Compound 83] | > 9.00
2 | Cc1c(Nc2ncnc(N3CCN(c4ncc(Cc5ccc(F)cc5)cn4)CC3)n2)cnn1C[C@@H]1CNCCO1 [Compound 271] | 8.00 to 9.00
3 | c1ccc(Cc2cnc(N3CCN(c4ncnc(Nc5ccc(O[C@@H]6CCCNC6)cc5)n4)CC3)nc2)cc1 [Compound 161] | > 9.00
4 | c1ccc(Oc2cnc(N3CCN(c4ncnc(Nc5ccc6c(c5)CNCC6)n4)CC3)nc2)cc1 [Compound 46] | > 9.00
5 | c1ccc(Cc2cnc(N3CCN(c4ncnc(Nc5cnn(CC6CCNCC6)c5)n4)CC3)nc2)cc1 [Compound 116] | > 9.00
6 | CN1CCC(Cn2cc(Nc3ncnc(N4CCN(c5ncc(Cc6ccccc6)cn5)CC4)n3)cn2)CC1 [Compound 174] | > 9.00
7 | Nc1nc(N2CCN(c3ncnc(Nc4ccc5c(c4)CNCC5)n3)CC2)ncc1Cc1ccccc1 [Compound 73] | > 9.00
8 | Oc1nc(N2CCN(c3ncnc(Nc4cnn(CC5CCNCC5)c4)n3)CC2)ncc1Cc1ccccc1 [Compound 179] | > 9.00
9 | c1ccc(Cc2cnc(N3CCN(c4ncnc(Nc5ccc6c(c5)CNCC6)n4)CC3)nc2)nc1 [Compound 44] | 8.00 to 9.00
10 | c1ccc(Cc2cnc(N3CCN(c4ncnc(Nc5cnc6c(c5)CNCC6)n4)CC3)nc2)cc1 [Compound 43] | > 9.00
11 | O[C@H]1CCCN(c2ccc(Nc3ncnc(N4CCN(c5ncc(Cc6ccccc6)cn5)CC4)n3)cc2)C1 [Compound 166] | > 9.00

Second part, the compound after the results:

Row | pIC50 | SMILES
12 | > 9.00 | Nc1cccc(Nc2ncnc(N3CCN(c4ncc(Cc5ccccc5)cn4)CC3)n2)c1 [Compound 12]
13 | > 9.00 | c1ccc(Cc2cnc(N3CCN(c4ncnc(Nc5ccc(N6CCNCC6)cc5)n4)CC3)nc2)cc1 [Compound 102]
14 | > 9.00 | CN(C)C1CCN(Cc2cccc(Nc3ncnc(N4CCN(c5ncc(Cc6ccccc6)cn5)CC4)n3)c2)C1 (stereo not drawn) [Compound 259]
15 | > 9.00 | OC1CCC(NCc2cccc(Nc3ncnc(N4CCN(c5ncc(Cc6ccccc6)cn5)CC4)n3)c2)C1 (stereo not drawn) [Compound 214]
16 | > 9.00 | c1ccc(Cc2cnc(N3CCN(c4ncnc(Nc5cn[nH]c5)n4)CC3)nc2)cc1 [Compound 4]
17 | > 9.00 | OCc1cccc(Nc2ncnc(N3CCN(c4ncc(Cc5ccccc5)cn4)CC3)n2)c1 [Compound 15]
18 | > 9.00 | CCNc1cccc(Nc2ncnc(N3CCN(c4ncc(Cc5ccccc5)cn4)CC3)n2)c1 [Compound 25]
19 | > 9.00 | CN1CCN(c2cccc(Nc3ncnc(N4CCN(c5ncc(Cc6ccccc6)cn5)CC4)n3)c2)CC1 [Compound 157]

What follows are compounds tested against T2, Kit D816V (HMC1.2 cells, Kit V560G and D816V) (Homo sapiens, UniProt P10721, D816V/V560G) (assay: HMC1.2 autophosphorylation assay (AlphaLISA, phospho-Y719 c-Kit)). Details: Kit autophosphorylation at tyrosine 719, 90 minutes, read-out: Cellular Activity.
T2 construct: endogenous in cells; host or cells: HMC1.2 cells
T2 sequence (P10721 26-976 V560G/D816V): as the sequence (P10721 26-976 D816V) above, with V535G counted along it
Format: cell-based
Summary of the method: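 Serum-starved (overnight, serum-free IMDM) HMC1.2 cells were treated for 90 min with a 10-point compound series (25 uM–95.4 pM, 0.25% DMSO final). Lysates were probed with phospho-Y719 and total c-Kit antibodies (15 nM final) plus AlphaLISA acceptor and streptavidin donor beads (2 h each, RT), with AlphaScreen read-out.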

Row | SMILES | pIC50
20 | c1ccc(Cc2cnc(N3CCN(c4ncnc(Nc5cnn(CC6CCNC6)c5)n4)CC3)nc2)cc1 (stereo not drawn) [Compound 83] | 7.00 to 8.00
21 | Cc1c(Nc2ncnc(N3CCN(c4ncc(Cc5ccc(F)cc5)cn4)CC3)n2)cnn1C[C@@H]1CNCCO1 [Compound 271] | > 8.00
22 | c1ccc(Cc2cnc(N3CCN(c4ncnc(Nc5ccc(O[C@@H]6CCCNC6)cc5)n4)CC3)nc2)cc1 [Compound 161] | > 8.00
23 | c1ccc(Oc2cnc(N3CCN(c4ncnc(Nc5ccc6c(c5)CNCC6)n4)CC3)nc2)cc1 [Compound 46] | 7.00 to 8.00
24 | c1ccc(Cc2cnc(N3CCN(c4ncnc(Nc5cnn(CC6CCNCC6)c5)n4)CC3)nc2)cc1 [Compound 116] | 7.00 to 8.00
25 | CN1CCC(Cn2cc(Nc3ncnc(N4CCN(c5ncc(Cc6ccccc6)cn5)CC4)n3)cn2)CC1 [Compound 174] | > 8.00
26 | Nc1nc(N2CCN(c3ncnc(Nc4ccc5c(c4)CNCC5)n3)CC2)ncc1Cc1ccccc1 [Compound 73] | > 8.00
27 | Oc1nc(N2CCN(c3ncnc(Nc4cnn(CC5CCNCC5)c4)n3)CC2)ncc1Cc1ccccc1 [Compound 179] | 5.00 to 6.00
28 | c1ccc(Cc2cnc(N3CCN(c4ncnc(Nc5ccc6c(c5)CNCC6)n4)CC3)nc2)nc1 [Compound 44] | 7.00 to 8.00
29 | c1ccc(Cc2cnc(N3CCN(c4ncnc(Nc5cnc6c(c5)CNCC6)n4)CC3)nc2)cc1 [Compound 43] | 7.00 to 8.00
30 | O[C@H]1CCCN(c2ccc(Nc3ncnc(N4CCN(c5ncc(Cc6ccccc6)cn5)CC4)n3)cc2)C1 [Compound 166] | > 8.00

Other lines, results leading:

Row | pIC50 | SMILES
31 | > 8.00 | Nc1cccc(Nc2ncnc(N3CCN(c4ncc(Cc5ccccc5)cn4)CC3)n2)c1 [Compound 12]
32 | 7.00 to 8.00 | c1ccc(Cc2cnc(N3CCN(c4ncnc(Nc5ccc(N6CCNCC6)cc5)n4)CC3)nc2)cc1 [Compound 102]
33 | 7.00 to 8.00 | CN(C)C1CCN(Cc2cccc(Nc3ncnc(N4CCN(c5ncc(Cc6ccccc6)cn5)CC4)n3)c2)C1 (stereo not drawn) [Compound 259]
34 | 7.00 to 8.00 | OC1CCC(NCc2cccc(Nc3ncnc(N4CCN(c5ncc(Cc6ccccc6)cn5)CC4)n3)c2)C1 (stereo not drawn) [Compound 214]
35 | 7.00 to 8.00 | c1ccc(Cc2cnc(N3CCN(c4ncnc(Nc5cn[nH]c5)n4)CC3)nc2)cc1 [Compound 4]
36 | 7.00 to 8.00 | OCc1cccc(Nc2ncnc(N3CCN(c4ncc(Cc5ccccc5)cn4)CC3)n2)c1 [Compound 15]
37 | 7.00 to 8.00 | CCNc1cccc(Nc2ncnc(N3CCN(c4ncc(Cc5ccccc5)cn4)CC3)n2)c1 [Compound 25]
38 | 6.00 to 7.00 | CN1CCN(c2cccc(Nc3ncnc(N4CCN(c5ncc(Cc6ccccc6)cn5)CC4)n3)c2)CC1 [Compound 157]

The compounds below were run against T3, PDGFRA D842V (Homo sapiens, UniProt P16234, D842V) (assay: PDGFRA D842V assay at Km (Caliper electrophoretic mobility shift)). Details: 15 uM ATP, 25 C, 90 minutes; read-out: PDFGRA D842V.
T3 construct: purchased ProQinase 0761-0000-1
T3 sequence (P16234 24-1089 D842V): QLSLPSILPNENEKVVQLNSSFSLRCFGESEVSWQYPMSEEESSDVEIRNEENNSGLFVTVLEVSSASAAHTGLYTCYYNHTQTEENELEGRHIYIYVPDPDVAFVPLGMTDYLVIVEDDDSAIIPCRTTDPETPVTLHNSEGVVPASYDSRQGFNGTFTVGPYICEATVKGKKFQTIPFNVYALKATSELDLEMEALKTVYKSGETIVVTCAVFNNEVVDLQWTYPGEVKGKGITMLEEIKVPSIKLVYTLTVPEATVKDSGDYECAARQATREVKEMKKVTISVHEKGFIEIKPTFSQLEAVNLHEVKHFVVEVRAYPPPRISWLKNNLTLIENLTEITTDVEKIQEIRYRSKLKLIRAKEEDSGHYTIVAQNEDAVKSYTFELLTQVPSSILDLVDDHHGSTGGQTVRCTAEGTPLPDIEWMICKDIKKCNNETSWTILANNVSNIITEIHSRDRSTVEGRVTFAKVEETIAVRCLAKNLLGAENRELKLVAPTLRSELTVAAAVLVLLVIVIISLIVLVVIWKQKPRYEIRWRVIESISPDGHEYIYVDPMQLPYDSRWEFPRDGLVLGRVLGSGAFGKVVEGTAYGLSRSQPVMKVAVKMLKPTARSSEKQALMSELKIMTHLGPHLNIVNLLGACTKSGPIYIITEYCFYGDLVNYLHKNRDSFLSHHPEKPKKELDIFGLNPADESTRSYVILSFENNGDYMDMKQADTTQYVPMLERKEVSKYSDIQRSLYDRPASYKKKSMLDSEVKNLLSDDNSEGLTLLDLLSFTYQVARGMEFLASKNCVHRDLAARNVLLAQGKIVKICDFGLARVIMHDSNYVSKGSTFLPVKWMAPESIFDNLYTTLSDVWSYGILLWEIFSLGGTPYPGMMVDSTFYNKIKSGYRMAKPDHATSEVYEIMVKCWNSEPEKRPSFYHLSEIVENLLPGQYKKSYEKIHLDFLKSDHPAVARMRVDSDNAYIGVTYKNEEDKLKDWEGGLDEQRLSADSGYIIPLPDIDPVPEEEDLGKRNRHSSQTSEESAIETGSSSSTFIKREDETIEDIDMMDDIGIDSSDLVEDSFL
Format: biochemical
Protocol: (§1) In order to assess the activity of chemical compounds against the relevant kinase of interest, the Caliper LifeSciences electrophoretic mobility shift technology platform is used. Fluorescently labeled substrate peptide is incubated in the presence of kinase and ATP so that a […] proportion of the peptide is phosphorylated. At the end of the reaction, the mix of phosphorylated (product) and non-phosphorylated (substrate) peptides are passed through the microfluidic system of the Caliper EZ Reader 2, under an applied potential difference. The presence of the phosphate group on the product peptide provides a difference in mass and charge between those of the substrate peptide, resulting in a separation of the substrate and product pools in the sample. As the pools pass a LEDS within the instrument, these pools are detected and resolved as separate peaks. The ratio between these peaks therefore reflects the activity of the chemical matter at that concentration in that well, under those conditions.
(§2) The reaction was stopped by the addition of 70 ul of Stop buffer (100 mM HEPES pH 7.5, 0.015% Brij 35, 35 mM EDTA and 0.2% of Coating Reagent 3 (Caliper Lifesciences)). The plate was then read on a Caliper EZReader 2 (protocol settings: −1.9 psi, upstream voltage −500, downstream voltage −3000, post sample sip 38 s).

Row | SMILES | pIC50
39 | c1ccc(Cc2cnc(N3CCN(c4ncnc(Nc5cnn(CC6CCNC6)c5)n4)CC3)nc2)cc1 (stereo not drawn) [Compound 83] | > 9.00
40 | Cc1c(Nc2ncnc(N3CCN(c4ncc(Cc5ccc(F)cc5)cn4)CC3)n2)cnn1C[C@@H]1CNCCO1 [Compound 271] | 8.00 to 9.00
41 | c1ccc(Cc2cnc(N3CCN(c4ncnc(Nc5ccc(O[C@@H]6CCCNC6)cc5)n4)CC3)nc2)cc1 [Compound 161] | 8.00 to 9.00
42 | c1ccc(Oc2cnc(N3CCN(c4ncnc(Nc5ccc6c(c5)CNCC6)n4)CC3)nc2)cc1 [Compound 46] | 8.00 to 9.00
43 | c1ccc(Cc2cnc(N3CCN(c4ncnc(Nc5cnn(CC6CCNCC6)c5)n4)CC3)nc2)cc1 [Compound 116] | > 9.00
44 | CN1CCC(Cn2cc(Nc3ncnc(N4CCN(c5ncc(Cc6ccccc6)cn5)CC4)n3)cn2)CC1 [Compound 174] | > 9.00
45 | Nc1nc(N2CCN(c3ncnc(Nc4ccc5c(c4)CNCC5)n3)CC2)ncc1Cc1ccccc1 [Compound 73] | > 9.00
46 | Oc1nc(N2CCN(c3ncnc(Nc4cnn(CC5CCNCC5)c4)n3)CC2)ncc1Cc1ccccc1 [Compound 179] | > 9.00
47 | c1ccc(Cc2cnc(N3CCN(c4ncnc(Nc5ccc6c(c5)CNCC6)n4)CC3)nc2)nc1 [Compound 44] | 8.00 to 9.00
48 | c1ccc(Cc2cnc(N3CCN(c4ncnc(Nc5cnc6c(c5)CNCC6)n4)CC3)nc2)cc1 [Compound 43] | 8.00 to 9.00
49 | O[C@H]1CCCN(c2ccc(Nc3ncnc(N4CCN(c5ncc(Cc6ccccc6)cn5)CC4)n3)cc2)C1 [Compound 166] | 8.00 to 9.00

The next lines start with the values.

Row | pIC50 | SMILES
50 | > 9.00 | Nc1cccc(Nc2ncnc(N3CCN(c4ncc(Cc5ccccc5)cn4)CC3)n2)c1 [Compound 12]
51 | > 9.00 | c1ccc(Cc2cnc(N3CCN(c4ncnc(Nc5ccc(N6CCNCC6)cc5)n4)CC3)nc2)cc1 [Compound 102]
52 | > 9.00 | CN(C)C1CCN(Cc2cccc(Nc3ncnc(N4CCN(c5ncc(Cc6ccccc6)cn5)CC4)n3)c2)C1 (stereo not drawn) [Compound 259]
53 | > 9.00 | OC1CCC(NCc2cccc(Nc3ncnc(N4CCN(c5ncc(Cc6ccccc6)cn5)CC4)n3)c2)C1 (stereo not drawn) [Compound 214]
54 | > 9.00 | c1ccc(Cc2cnc(N3CCN(c4ncnc(Nc5cn[nH]c5)n4)CC3)nc2)cc1 [Compound 4]
55 | > 9.00 | OCc1cccc(Nc2ncnc(N3CCN(c4ncc(Cc5ccccc5)cn4)CC3)n2)c1 [Compound 15]
56 | > 9.00 | CCNc1cccc(Nc2ncnc(N3CCN(c4ncc(Cc5ccccc5)cn4)CC3)n2)c1 [Compound 25]
57 | 8.00 to 9.00 | CN1CCN(c2cccc(Nc3ncnc(N4CCN(c5ncc(Cc6ccccc6)cn5)CC4)n3)c2)CC1 [Compound 157]

What follows are compounds tested against T4, wild type Kit (Homo sapiens, UniProt P10721) (assay: Kit wild type assay at Km (Caliper electrophoretic mobility shift)). Details: 400 uM ATP, 25 C, 90 minutes; read-out: WT KIT.
T4 construct: purchased Carna Bioscience 08-156
T4 sequence (P10721 26-976): as the sequence (P10721 26-976 D816V) above, with V791D counted along it
Format: biochemical
Protocol: as §1
as §2, with “−700,” for “−500,”, “35” for “38”

Row | SMILES | pIC50
58 | c1ccc(Cc2cnc(N3CCN(c4ncnc(Nc5cnn(CC6CCNC6)c5)n4)CC3)nc2)cc1 (stereo not drawn) [Compound 83] | > 8.00
59 | c1ccc(Cc2cnc(N3CCN(c4ncnc(Nc5ccc(O[C@@H]6CCCNC6)cc5)n4)CC3)nc2)cc1 [Compound 161] | > 8.00
60 | c1ccc(Oc2cnc(N3CCN(c4ncnc(Nc5ccc6c(c5)CNCC6)n4)CC3)nc2)cc1 [Compound 46] | > 8.00
61 | c1ccc(Cc2cnc(N3CCN(c4ncnc(Nc5cnn(CC6CCNCC6)c5)n4)CC3)nc2)cc1 [Compound 116] | > 8.00
62 | CN1CCC(Cn2cc(Nc3ncnc(N4CCN(c5ncc(Cc6ccccc6)cn5)CC4)n3)cn2)CC1 [Compound 174] | > 8.00
63 | Nc1nc(N2CCN(c3ncnc(Nc4ccc5c(c4)CNCC5)n3)CC2)ncc1Cc1ccccc1 [Compound 73] | > 8.00
64 | Oc1nc(N2CCN(c3ncnc(Nc4cnn(CC5CCNCC5)c4)n3)CC2)ncc1Cc1ccccc1 [Compound 179] | > 8.00
65 | c1ccc(Cc2cnc(N3CCN(c4ncnc(Nc5ccc6c(c5)CNCC6)n4)CC3)nc2)nc1 [Compound 44] | 7.00 to 7.96
66 | c1ccc(Cc2cnc(N3CCN(c4ncnc(Nc5cnc6c(c5)CNCC6)n4)CC3)nc2)cc1 [Compound 43] | 7.00 to 7.96
67 | O[C@H]1CCCN(c2ccc(Nc3ncnc(N4CCN(c5ncc(Cc6ccccc6)cn5)CC4)n3)cc2)C1 [Compound 166] | 7.00 to 7.96

Further lines, results first:

Row | pIC50 | SMILES
68 | > 8.00 | Nc1cccc(Nc2ncnc(N3CCN(c4ncc(Cc5ccccc5)cn4)CC3)n2)c1 [Compound 12]
69 | > 8.00 | c1ccc(Cc2cnc(N3CCN(c4ncnc(Nc5ccc(N6CCNCC6)cc5)n4)CC3)nc2)cc1 [Compound 102]
70 | > 8.00 | CN(C)C1CCN(Cc2cccc(Nc3ncnc(N4CCN(c5ncc(Cc6ccccc6)cn5)CC4)n3)c2)C1 (stereo not drawn) [Compound 259]
71 | 7.00 to 7.96 | OC1CCC(NCc2cccc(Nc3ncnc(N4CCN(c5ncc(Cc6ccccc6)cn5)CC4)n3)c2)C1 (stereo not drawn) [Compound 214]
72 | > 8.00 | c1ccc(Cc2cnc(N3CCN(c4ncnc(Nc5cn[nH]c5)n4)CC3)nc2)cc1 [Compound 4]
73 | 7.00 to 7.96 | OCc1cccc(Nc2ncnc(N3CCN(c4ncc(Cc5ccccc5)cn4)CC3)n2)c1 [Compound 15]
74 | 7.00 to 7.96 | CCNc1cccc(Nc2ncnc(N3CCN(c4ncc(Cc5ccccc5)cn4)CC3)n2)c1 [Compound 25]
75 | > 8.00 | CN1CCN(c2cccc(Nc3ncnc(N4CCN(c5ncc(Cc6ccccc6)cn5)CC4)n3)c2)CC1 [Compound 157]
